Data taken from patent US20240335465A1 (University of Virginia Patent Foundation, priority 2021, published 2024).

Assays:
NAD^+ = experiment: NAD+ quantification; assay type: cell-based, human; conditions: WT and STING−/− THP1, cGAMP
[1] = tested on: HEK293-ACE reporter cells; experiment: ACE CRISPR/Cas9 reporter system; assay type: cell-based, human; conditions: cGAMP transfection; interferon β 50 ng/ml
Procedure: ACE CRISPR/Cas9 reporter system: The ACE reporter (Addgene #109428) described previously (Aird et al., 2018; St. Martin et al., 2018) was integrated in HEK293 cells using lentiviral transduction. ACE reporter integrated cells (GFP+) were sorted in a Becton Dickinson Influx Cell Sorter and propagated. […] 72 hours post RNP transfection, cells were trypsinized, collected, and analyzed with an Attune NxT flow cytometer (Thermofisher). To quantify the HDR DNA repair events, ˜10,000-30,000 cells were acquired on an Attune NxT cytometer and analyzed using FCS Express software. Single cell events were determined by gating on the area against the width of the forward scatter pulse signal. Debris removal was performed by excluding events with very low forward and side scatter. For determining % of mCherry positive cells we established positive and negative populations using mock transfections as negative controls and mCherry transfected samples as Fluorescence Minus One controls.

γH2AX = γH2AX immunofluorescence (human RPE, THP1 cells); assay type: cell-based
Procedure: Immunofluorescence Staining: 16,500 adherent cells/cm^2 were plated on a gelatin coated 8-chamber slide (VWR, Catalogue #62407-296) and treated as indicated. Media was removed and cells were washed with 1×PBS with Ca^2+/Mg^2+ and fixed with 4% PFA for 20 minutes. Fixed cells were permeabilized with PBS+0.1% Triton-X and washed 3 times with PBS+0.1% Tween20. After treatment as indicated, non-adherent THP1 cells were collected by centrifugation, washed in cold PBS and fixed in PFA. Post-fixation, they were washed with PBS, spotted on gelatin coated “PTFE” Printed Slides (Electron Microscopy Sciences, Cat #63424-06), and air-dried. For γH2AX staining, permeabilized cells were blocked in Serum-free DAKO Protein Block (Agilent, Catalogue #X0909) for 1 hr at room temperature. Cells were incubated in primary antibody (γH2AX, 1:500; anti-HA, 1:100; Table 1) in DAKO antibody diluent at 4° C. overnight on a rocker platform. U2OS-STING cells undergoing Rad51 staining were first fixed in methanol for 20 minutes in −20° C., blocked for 1 hr with donkey block (2% normal donkey serum, 1% BSA, 0.1% Triton X 100, 0.05% Tween20, 0.05% Sodium Azide in PBS), then finally incubated in an anti-Rad51 antibody overnight at 4° C. (Bio-academia Cat #70-001, 1:6000 in 5% milk in TBST). For RPA70 staining, cells were fixed in 4% PFA at room temperature for 20 minutes and blocked in Cell Signaling blocking buffer (1×PBS/5% normal donkey serum/0.3% Triton™ X-100) for 1 hr in room temperature then incubated in an RPA70 antibody (Cell Signaling Cat #2267, 1:50 in blocking buffer) overnight at 4° C. Primary antibody was washed 3 times and incubated with secondary antibodies (Invitrogen, Alexa 555, 488) for 1 hr at room temperature. Coverslips were mounted on the cells with ProLong™ Gold Antifade mounting media with DAPI (Thermofisher, Catalogue #P36935). All images were obtained by confocal microscopy (Nikon, C2).

HEK293-TrLR cells = experiment: HDR and NHEJ assay using Traffic Light Reporter; assay type: cell-based, human
Procedure: TrLR-integrated HEK293 cells were selected through exposure to 5 μg/ml puromycin for 2 weeks. […] 8 hours following this procedure, cells were transfected with pCVL SFFV d14GFP Donor (Addgene Cat #31475), pCBASceI (Addgene Cat #26477)), or Donor+SceI using Lipofectamine 3000. 72 hours post-transfection, cells were trypsinized, collected, and analyzed with an Attune NxT flow cytometer (Thermofisher). To quantify the DNA repair events, ˜10,000-30,000 cells were acquired on an Attune NxT cytometer and analyzed using FCS Express software. Single cell events were determined by gating on the area against the width of the forward scatter pulse signal. Debris removal was performed by excluding events with very low forward and side scatter. For determining % of GFP and mCherry positive cells we established positive and negative populations using mock transfections as negative controls and GFP or mCherry transfected samples as Fluorescence Minus One controls.

Crassostrea virginica = experiment: DDR in oysters after adductor muscle injection; assay type: in vivo; conditions: hemocytes; cGAMP 25 μg/50 gm, doxorubicin 1 μg/50 gm oyster weight, 16 hours
Procedure: Oysters: Wild adult eastern oysters (Crassostrea virginica) of both male and female sexes ranging from 2 cm-7 cm in length (1 to 3 years in age) were collected from a natural oyster reef on Virgnia's Eastern Shore. Following collection, the diploid oysters were placed on ice and transported approximately 3 h to the University of Virginia main campus in Charlottesville, VA. There they were stored in an aerated aquarium containing water supplemented with Instant Ocean® Aquarium Sea Salt (50 gm/l). […] Treated oysters were kept at 4° C. in the dark for 16 hours after which they were shucked, had their hemolymph/tissues harvested for analysis by western blotting, and dead oyster and shell were disposed of.

DDR signaling = DDR signaling immunoblotting in THP1 cells
THP1 cells [2] = experiment: CellTiter 96 AQueous One Solution Cell Proliferation (MTS) assay; assay type: cell-based, human
Procedure: Cell Viability Assay: MTS assays were performed using the CellTiter 96 AQueous One Solution Cell Proliferation Assay (Promega) according to the manufacturer's instructions. […] 48 hours the later MTS assay was performed according the to manufacturer's protocol.

THP1 cells [3] = experiment: Alkaline comet assay in THP1 cells; assay type: cell-based, human
Procedure: Comet assays: DNA damage in individual cells was assessed using OxiSelect™ Comet Assay Kits (Cell Biolabs, Cat #STA-351) according to the manufacturer's protocol. THP1 cells were treated as indicated, collected by centrifugation, washed twice with ice-cold PBS, and resuspended in cold PBS at 1×10^5 cells/ml. Cells were mixed with molten Comet agarose (1:10, v/v) and immediately transferred to wells of the Comet Agarose Base Layer (pre-prepared by adding 75 μl molten agarose to Comet slides) in 75 μl aliquots. Cells were embedded on the agarose by cooling the gel at 4° C. for 15 minutes in the dark and then lysed in pre-chilled lysis buffer for 60 minutes at 4° C. The cell-containing slides were neutralized in pre-chilled alkaline buffer for 30 minutes and then carefully transferred to a horizontal electrophoresis chamber. Electrophoresis was conducted in cold Alkaline Electrophoresis Solution (300 mM NaOH, pH>13, 1 mM EDTA) for 30 minutes at 1 volt/cm (300 mA current). The samples were washed three times in pre-chilled water and immersed in 70% ethanol for 5 minutes. The cells were subsequently air dried and their DNA stained with 100 μl/well of diluted Vista Green DNA Dye. After incubating at room temperature, cells were finally visualized under a fluorescence microscope using an FITC filter. Comet length was quantified using OpenComet software as described before (Gyori et al., 2014).

SMILES: Nc1nc2c(ncn2[C@@H]2O[C@@H]3COP(=O)(O)O[C@H]4[C@@H](O)[C@H](n5cnc6c(N)ncnc65)O[C@@H]4COP(=O)(O)O[C@@H]2[C@@H]3O)c(=O)[nH]1 [cGAMP, cyclic guanosine monophosphate-adenosine monophosphate]
- abundance of cellular NAD^+ (NAD^+): significantly reduced the abundance of cellular NAD^+ in a STING-dependent manner
- HDR-mediated CRISPR editing (mCherry positive cells) [1]: significantly dampened HDR-mediated CRISPR editing
- cGAMP-induced pan-nuclear γH2AX staining (γH2AX; WT, STING−/−, shIFNAR THP1 cells, 16 hours): suppressed in STING^−/− but not in sh-IFNAR THP1 cells
- γH2AX staining pattern (γH2AX; human RPE cells, doxorubicin 2 hours, cGAMP or HT-DNA 6 hours): γH2AX marked by pan-nuclear staining
- HDR suppression by cGAMP in rucaparib-pretreated cells (HEK293-TrLR cells; 1 μM Rucaparib): ineffective at HDR suppression in cells pretreated with rucaparib
- HDR in ATM inhibitor treated cells, mock vs. cGAMP (HEK293-TrLR cells; 25 μM KU-55933): still suppressed HDR
- HDR frequency (HEK293-TrLR cells; I-SceI with donor, 72 hours): significantly reduced the prevalence of HDR
- NHEJ frequency (HEK293-TrLR cells; I-SceI, 72 hours): unaffected in either case
- TBK1 phosphorylation (pTBK1) (Crassostrea virginica): TBK1 phosphorylation
- γH2AX (Crassostrea virginica): elevated levels of γH2AX
- cGAMP-mediated induction of γH2AX and pCHK2 (DDR signaling; IFNAR1 and STAT2 knockdown THP1 cells): failed to impede cGAMP-mediated induction of γH2AX and pCHK2
- activation of DDR by cGAMP (H2AX, ATM, CHK2 phosphorylation) (DDR signaling; STING−/− THP1 cells, 16 hours): abrogated by the deletion of STING
- DDR activation (γH2AX, pCHK2) (DDR signaling; THP1, LPS 500 ng/ml 6 hours, cGAMP 16 hours): activated the DDR
- ATR phosphorylation (pATR) (DDR signaling; WT THP1): inducing ATR phosphorylation
- CHK1 activation (pCHK1) (DDR signaling; WT THP1): neither activation of CHK1
- cGAMP-induced DDR signaling (DDR signaling; cGAS−/− THP1 cells, 16 hours): proceeded normally in cGAS-deficient cells
- γH2AX in target THP1 cells incubated with conditioned media from cGAMP treated cells (DDR signaling; conditioned media collected after 18 hours, 18 hours on target cells): failed to induce γH2AX
- cGAMP-induced DDR signaling (DDR signaling; shTBK1 knockdown THP1 cells): substantially reduced cGAMP-induced DDR signaling
- sensitization to IR in rucaparib-pretreated cells (THP1 cells [2]; WT THP1, 10 μM Rucaparib, 10Gy, 48 hours): unable to further sensitize cells to IR
- sensitivity to ionizing radiation (cell survival) (THP1 cells [2]; WT THP1, 10Gy, 48 hours): more sensitive to ionizing radiation (IR)
- THP1 cell proliferation (THP1 cells [2]; WT THP1 post cGAMP treatment): inhibited THP1 cell proliferation
- camptothecin-induced DNA damage (comet tail length) (THP1 cells [3]; THP1, cGAMP 6 hours then 1 μM camptothecin 16 hours): exacerbates camptothecin-induced DNA damage
- DNA strand breaks in comet assay (THP1 cells [3]; THP1 cells, cGAMP 16 hours): no strand breaks were observed
